According to patent US8314140B2, “4-hydroxythiobenzamide derivatives of drugs” (Antibe Therapeutics Inc., priority 2006, dated 2012):

Experiments:
COX-1 and/or COX-2 = assay: Gastric prostaglandin E2 synthesis; format: in vivo, rat; conditions: oral, 3 h; diclofenac 20 mg/kg or equimolar doses; FIG. 9
Protocol: Briefly, the tissue samples were minced with scissors for 30 min, then placed in 1 mL of sodium phosphate buffer (pH 7.4) and placed in a shaking water bath (37° C.) for 20 min.

gastric ulcers = assay: Healing of acetic acid-induced gastric ulcers; format: in vivo, rat; conditions: oral twice-daily for 4 days; 30 μmol/kg (naproxen, Compound XX 60 μmol/kg); FIG. 17
Protocol: Gastric ulcers were induced via serosal application of acetic acid, as described by Elliott et al., A nitric oxide-releasing nonsteroidal anti-inflammatory drug accelerates gastric ulcer healing in rats. […] After 4 days of such treatment, the rats were euthanized and the stomach was excised and photographed. The area (in mm^2) of the ulcer was determined planimetrically by an individual unaware of the treatments given to the rats.

COX-2 = target: T1, COX-2 (Rattus norvegicus, UniProt P35355); assay: Rat airpouch assay, exudate PGE2 after zymosan; format: in vivo; conditions: oral 30 min before; diclofenac 3 mg/kg, Compound XVII 4.1 mg/kg; FIG. 12
T1 construct: from tissue; host or cells: rat subcutaneous airpouch exudate, in vivo, zymosan-induced
T1 sequence (P35355 18-604): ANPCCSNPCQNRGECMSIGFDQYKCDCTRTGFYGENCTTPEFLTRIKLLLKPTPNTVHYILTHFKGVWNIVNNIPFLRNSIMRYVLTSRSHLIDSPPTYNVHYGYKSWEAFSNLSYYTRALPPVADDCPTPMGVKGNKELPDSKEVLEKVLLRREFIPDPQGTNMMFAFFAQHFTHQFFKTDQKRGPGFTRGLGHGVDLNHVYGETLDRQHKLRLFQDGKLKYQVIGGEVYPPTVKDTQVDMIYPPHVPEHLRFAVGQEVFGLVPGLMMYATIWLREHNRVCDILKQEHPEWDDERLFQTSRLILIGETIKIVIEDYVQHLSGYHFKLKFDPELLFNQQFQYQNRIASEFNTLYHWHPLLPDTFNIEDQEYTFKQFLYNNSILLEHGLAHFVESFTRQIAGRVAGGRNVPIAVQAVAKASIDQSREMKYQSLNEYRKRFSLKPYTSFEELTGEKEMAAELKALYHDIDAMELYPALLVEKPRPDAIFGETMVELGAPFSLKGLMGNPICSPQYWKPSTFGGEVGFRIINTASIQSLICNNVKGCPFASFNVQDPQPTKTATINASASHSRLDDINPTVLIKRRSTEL
Protocol: Briefly, a subcutaneous “pouch” is created by repeated injections of air over several days. Once established, inflammation in the pouch can be induced by injection of 1 mL of 1% zymosan. […] Another group of 5 rats was treated with the vehicle, but received an injection of 0.9% sterile saline into the pouch rather than zymosan.
Each group consisted of 5 rats.

TNBS-induced colitis = TNBS-induced colitis in mice (disease activity score, MPO activity); format: in vivo; conditions: oral 100 mg/kg every 12 h for 5 days
Protocol: A standard experimental animal model of colitis induced by intracolonic administration of 2,4,6-trinitrobenzene sulfonic acid (TNBS) to mice is used in the following example. A detailed description of this model has been published (Santucci et al. (2003) Gastroenterology 124:1381-94) and is incorporated herein by reference. Briefly, 6-8 week old Balb/c mice were given TNBS intracolonically at a dose of 1.5 mg in 0.1 mL of 30% ethanol. The mice were randomized to the various treatment groups (n=6 per group). Beginning one hour later and continuing every 12 h for 5 days, the mice were treated orally with vehicle (1% carboxymethylcellulose (CMC)), 5-ASA (mesalamine) alone (100 mg/kg), 4-hydroxythiobenzamide (referred to in the Figures as 4-HTB) (100 mg/kg), 5-amino-2-(4-thiocarbamoyl-phenoxycarbonyloxy)-benzoic acid (100 mg/kg) (referred to hereinafter as Compound XXVII) and equimolar doses of mesalamine (50 mg/kg) and (4-HTB) (50 mg/kg). *p<0.05 versus the vehicle-treated group. Each group consisted of at least 5 rats.
The mice were evaluated (blindly) on the final day of the study for the presence of diarrhea and fecal occult blood, and their body weights were measured. […] After sacrifice, a sample of the colon was excised for measurement of myeloperoxidase (MPO) activity, as a marker of granulocyte infiltration. All results were compared to those obtained with healthy mice as well.

[1] = test system: leukocyte adherence to the vascular endothelium; assay: Aspirin-induced leukocyte adherence, intravital microscopy of mesenteric venules; format: in vivo, rat; conditions: FIG. 5
Protocol: Leukocyte adherence was studied using intravital microscopy, as described in detail previously (Wallace et al., (1993) Am. J. Physiol. 265: 993-998, incorporated hereto by reference). Rats were anesthetized with pentobarbital sodium (60 mg/kg i.p.) and cautery incisions were made along the abdominal region. A tracheotomy was performed to facilitate breathing. The rats were placed in a supine position, and a segment of the mesentery was exteriorized through the abdominal incision. The mesentery was carefully placed over an optically clear viewing pedestal that allowed for trans-illumination of a 2-cm^2 segment of tissue. All exposed tissue was covered with saline-soaked gauze to minimize dehydration. […] A video camera mounted on the microscope (Panasonic™ digital 5000) projected the image onto a monitor, and the images were recorded for playback analysis using a videocassette recorder. Images of the mesenteric microcirculation were recorded 5 minutes prior to aspirin administration (baseline), at the time of aspirin administration (time 0-5) and every 15 minutes for 60 minutes. Leukocyte adherence was blindly quantified from videotaped images of the vessels made over 5-min periods as the number of leukocytes that remained stationary along the vessel wall for 30 s or more (expressed per 100 μm venule length). […]

| Compound | gastric PGE2 synthesis (COX-1 and/or COX-2) | gastric ulcer healing (ulcer surface area) (gastric ulcers) | exudate PGE2 in the pouch (COX-2 activity) (COX-2) | Disease Activity Score (TNBS-induced colitis; FIG. 1) | myeloperoxidase (MPO) activity (granulocyte infiltration) (TNBS-induced colitis; colon sample, FIG. 2) | leukocyte adherence at 60-65 minutes ([1]; 100 mg/kg intragastrically 60 min prior to aspirin) | leukocyte adherence at 60-65 minutes after glibenclamide pretreatment ([1]; glibenclamide 10 mg/kg i.p. 30 min prior, aspirin) |
| --- | --- | --- | --- | --- | --- | --- | --- |
| NC(=S)c1ccc(O)cc1 [4-hydroxythiobenzamide] | did not reduce gastric PGE2 synthesis | did not significantly affect the healing of gastric ulcers | did not significantly affect COX-2 activity |  |  |  |  |
| 5-amino-2-(4-thiocarbamoyl-phenoxycarbonyloxy)-benzoic acid [Compound XXVII] |  |  |  | almost three times as effective | significantly reduced inflammation | suppress aspirin-induced leukocyte adherence | reverse this inhibitor effect on leukocyte adherence |
